Results reported in patent US8906644B2, “Method for culture of hepatocytes” (The University of Tokyo, priority 2009, dated 2014).

Target: T1, drug transporter (MRP2) (Rattus norvegicus, UniProt Q63120)
T1 construct: endogenous in cells; host or cells: primary hepatocytes in collagen gel sandwich culture on a PDMS membrane device, with a polystyrene device for comparison
Experiment: Measurement of MRP2 activity with CDCF (Bile Excretion Index) in collagen gel sandwiched hepatocytes
Assay type: in vitro ADME
Conditions: Day 4 of culture, 5 μM CDCF, 5 minutes
Experimental: Using the collagen gel sandwiched hepatocytes that were cultured on the PDMS membrane culturing device prepared in Example 1 and forming bile canaliculi, the activity of a drug transporter (MRP2) was measured by incorporation of 5-(and-6)-carboxy-2′,7′-dichlorofluorescein (CDCF) as follows according to a Non-patent Document (Liu X et al., Am J Physiol, 1999, vol. 277, pp. 12-21). Further, hepatocytes cultured in a conventional polystyrene culturing device were used for comparison.
Ca/Mg(+) HBSS was prepared before use by mixing 50 mL of HBSS (Invitrogen, 14175-079), 500 μL of 14 g/L CaCl2 and 500 μL of 10 g/L MgCl2/6H2O together. In terms of the CDCF solution, a 5 μM CDCF solution was prepared before use by using 1 mM CDCF (in dimethyl sulfoxide: Molecular Probes, C-369) and Ca/Mg(+) HBSS, and the prepared solution was incubated in a water bath at 37° C. […]
Two hepatocyte cultures were prepared 4 days after the beginning of the culture (3 days after the deposition of the gel). […] A 100-μL aliquot was collected from each supernatant and subjected to measurement with a fluorescence microplate reader with excitation at 492 nm and fluorescence at 530 nm to quantify the amount of CDCF. […] The Bile Excretion Index (BEI) was calculated according to the following equation based on the fluorescent brightness per protein amount (Accumulation).

T1 sequence (Q63120 whole entry): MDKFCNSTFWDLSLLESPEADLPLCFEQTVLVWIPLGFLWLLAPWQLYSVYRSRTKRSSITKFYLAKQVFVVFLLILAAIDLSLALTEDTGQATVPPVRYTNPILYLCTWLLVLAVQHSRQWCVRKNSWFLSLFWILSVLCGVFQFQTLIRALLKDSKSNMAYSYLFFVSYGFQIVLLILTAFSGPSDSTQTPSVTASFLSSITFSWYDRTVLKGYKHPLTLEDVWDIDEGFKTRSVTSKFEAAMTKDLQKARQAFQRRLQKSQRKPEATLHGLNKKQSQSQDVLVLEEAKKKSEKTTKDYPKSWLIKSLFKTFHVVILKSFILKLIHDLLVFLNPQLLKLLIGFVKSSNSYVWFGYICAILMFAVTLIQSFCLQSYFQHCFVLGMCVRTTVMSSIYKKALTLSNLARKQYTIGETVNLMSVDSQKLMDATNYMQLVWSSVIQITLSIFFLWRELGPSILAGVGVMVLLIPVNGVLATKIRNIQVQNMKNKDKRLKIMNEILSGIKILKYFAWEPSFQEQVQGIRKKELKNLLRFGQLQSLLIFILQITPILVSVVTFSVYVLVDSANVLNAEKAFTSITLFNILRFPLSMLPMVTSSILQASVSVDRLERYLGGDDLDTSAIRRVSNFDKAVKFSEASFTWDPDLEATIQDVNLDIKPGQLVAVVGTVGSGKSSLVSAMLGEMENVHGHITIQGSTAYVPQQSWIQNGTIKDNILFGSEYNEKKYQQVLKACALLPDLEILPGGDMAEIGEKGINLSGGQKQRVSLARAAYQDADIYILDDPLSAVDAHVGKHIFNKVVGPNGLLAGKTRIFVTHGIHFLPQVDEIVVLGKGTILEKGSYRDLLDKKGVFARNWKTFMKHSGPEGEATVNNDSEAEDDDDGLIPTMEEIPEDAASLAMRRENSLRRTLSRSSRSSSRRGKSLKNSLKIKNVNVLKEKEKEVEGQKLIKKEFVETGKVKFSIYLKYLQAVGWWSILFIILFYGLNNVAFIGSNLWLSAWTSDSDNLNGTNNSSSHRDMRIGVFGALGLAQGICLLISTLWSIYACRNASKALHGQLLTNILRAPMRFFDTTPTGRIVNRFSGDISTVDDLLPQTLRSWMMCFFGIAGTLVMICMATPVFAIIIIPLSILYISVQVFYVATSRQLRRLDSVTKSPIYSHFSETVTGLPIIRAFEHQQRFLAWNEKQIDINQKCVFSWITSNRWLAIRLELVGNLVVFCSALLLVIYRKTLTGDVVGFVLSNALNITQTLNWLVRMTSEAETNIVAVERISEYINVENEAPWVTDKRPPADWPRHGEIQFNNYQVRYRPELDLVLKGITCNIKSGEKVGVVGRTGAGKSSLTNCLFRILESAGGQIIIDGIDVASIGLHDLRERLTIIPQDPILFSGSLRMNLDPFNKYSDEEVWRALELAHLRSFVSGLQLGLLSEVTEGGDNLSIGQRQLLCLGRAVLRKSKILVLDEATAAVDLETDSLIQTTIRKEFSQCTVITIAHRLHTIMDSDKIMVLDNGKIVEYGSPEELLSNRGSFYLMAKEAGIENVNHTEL

- Bile Excretion Index (BEI) (collagen gel sandwich on conventional polystyrene (PS) substrate): about 20%
- Bile Excretion Index (BEI) (collagen gel sandwich on gas-permeable PDMS membrane culturing device): about 40%
Substance: 5-(and-6)-carboxy-2′,7′-dichlorofluorescein [CDCF]
